Test results taken from patent publication US9174985B2, “Salts of 7-(2,3-di-p-tolyl-7,8-dihydropyrido[2,3-b]pyrazin-5(6H)-yl)heptanoic acid as IP receptor agonists” (Novartis AG, priority 2012, dated 2015).
Counter-ions that a name gives are not always drawn.

Tests used:
[1] = tested on: rats; settings: cited from earlier work
[2] = solubility; assay type: physicochemical; settings: free form, in water
[3] = stability (physical stability, stability under light); assay type: physicochemical; settings: for stability: free form, under light
[4] = pH of a 1% solution/suspension in water; assay type: physicochemical; settings: 10 mg salt in 1 mL water, ultrasound about 5 min, stirred one hour at RT, batch B, 24.3-25.2° C.
Method: A mixture of 10 mg salt and 1 mL water was treated about 5 min with ultrasound. Afterwards, the mixture was stirred for one hour at RT followed by pH measurement.

[5] = tested on: human airway epithelial cells; settings: human airway epithelial cells in vitro; cited from earlier work
[6] = tested on: former smokers; settings: oral; cited from earlier work
[7] = biological target: β2-adrenoceptor (Homo sapiens, UniProt P07550); settings: cited from earlier work
Sequence of β2-adrenoceptor (P07550 whole entry, species assumed): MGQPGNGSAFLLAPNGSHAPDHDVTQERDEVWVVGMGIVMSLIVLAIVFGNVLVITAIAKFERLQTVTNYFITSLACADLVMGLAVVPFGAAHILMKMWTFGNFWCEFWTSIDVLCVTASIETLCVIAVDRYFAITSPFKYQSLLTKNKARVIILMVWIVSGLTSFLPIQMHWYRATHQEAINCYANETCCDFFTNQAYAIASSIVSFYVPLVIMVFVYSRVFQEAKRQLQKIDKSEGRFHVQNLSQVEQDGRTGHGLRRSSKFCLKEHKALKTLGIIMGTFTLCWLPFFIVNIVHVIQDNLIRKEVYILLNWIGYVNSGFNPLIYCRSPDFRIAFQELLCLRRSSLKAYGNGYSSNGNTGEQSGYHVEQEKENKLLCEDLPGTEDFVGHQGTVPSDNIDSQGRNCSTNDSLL

[8] = dissolution rate; assay type: physicochemical; settings: compared to the free form
[9] = listed as free form of 7-(2,3-di-p-tolyl-7,8-dihydropyrido[2,3-b]pyrazin-5(6H)-yl)heptanoi

Compound: CC#CCC(C)[C@H](O)/C=C/[C@@H]1[C@H]2c3cccc(CCCC(=O)O)c3O[C@H]2C[C@H]1O (mixture of isomers) [Beraprost]
- development of experimental cigarette smoke-induced emphysema [1]: protected

Compound: Cc1ccc(-c2nc3c(nc2-c2ccc(C)cc2)N(CCCCCCC(=O)O)CCC3)cc1 [7-(2,3-di-p-tolyl-7,8-dihydropyrido[2,3-b]pyrazin-5(6H)-yl)heptanoic acid]
- solubility [2]: poorly soluble in water
- solubility [2, 9]: poor solubility
- stability [3]: low stability under light
- stability [3, 9]: poor solubility and stability

Compound: Cc1ccc(-c2nc3c(nc2-c2ccc(C)cc2)N(CCCCCCC(=O)O)CCC3)cc1 [Example 1, 7-(2,3-di-p-tolyl-7,8-dihydropyrido[2,3-b]pyrazin-5(6H)-yl)heptanoate sulfate]
- physical stability [3]: good
- pH of a 1% solution/suspension in water ([4]; sulfate): 1.78

Compound: Cc1ccc(-c2nc3c(nc2-c2ccc(C)cc2)N(CCCCCCC(=O)O)CCC3)cc1 [Example 2, 7-(2,3-di-p-tolyl-7,8-dihydropyrido[2,3-b]pyrazin-5(6H)-yl)heptanoate xinafoate]
- photostability [3]: good
- pH of a 1% solution/suspension in water [4]: 6.46

Compound: Cc1ccc(-c2nc3c(nc2-c2ccc(C)cc2)N(CCCCCCC(=O)[O-])CCC3)cc1.[Na+] [Example 3, 7-(2,3-di-p-tolyl-7,8-dihydropyrido[2,3-b]pyrazin-5(6H)-yl)heptanoate sodium]
- physical stability [3]: good

Compound: Cc1ccc(-c2nc3c(nc2-c2ccc(C)cc2)N(CCCCCCC(=O)O)CCC3)cc1 [Example 4, 7-(2,3-di-p-tolyl-7,8-dihydropyrido[2,3-b]pyrazin-5(6H)-yl)heptanoate hydrochloride]
- pH of a 1% solution/suspension in water ([4]; hydrochloride): 2.3

Compound: O=C(O)c1cccc(/C=C2/C[C@@H]3[C@@H](/C=C/[C@@H](O)C4CCCCC4)[C@H](O)C[C@@H]3O2)c1 [Taprostene]
- generation of the CD8+ T cell chemoattractants CXCL9 and CXCL10 [5]: suppressed

Compound: CC#CCC(C)[C@H](O)/C=C/[C@@H]1[C@H]2C/C(=C/CCCC(=O)O)C[C@H]2C[C@H]1O (stereo partly shown) [iloprost]
- endobronchial dysplasia [6]: significantly improved

Compound: CCc1cc2c(cc1CC)CC(NC[C@H](O)c1ccc(O)c3[nH]c(=O)ccc13)C2 [indacaterol, (R)-5-[2-(5,6-diethyl-indan-2-ylamino)-1-hydroxyethyl]-8-hydroxy-1H-quinolin-2-one]
- duration of action [7]: over 24 hours
- onset of action [7]: about 10 minutes

Compound: CS(=O)(=O)O.Cc1ccc(-c2nc3c(nc2-c2ccc(C)cc2)N(CCCCCCC(=O)O)CCC3)cc1 [mesylate salt of 7-(2,3-di-p-tolyl-7,8-dihydropyrido[2,3-b]pyrazin-5(6H)-yl)heptanoic acid]
- dissolution rate [8]: significantly higher dissolution rate compared to the free form
